In patent publication US10000489B2, “Compounds αvβ6 integrin antagonists” (GlaxoSmithKline Intellectual Property Development Limited, priority 2014, dated 2018):
Where a name gives a salt, the structure may show the parent alone. Read-outs that look alike come from different tables or passages of the source.

Tests used:
Type in all cases: cell-based
αvβ3 = molecular target: T1, αvβ3 (Homo sapiens, UniProt P05106+P06756); experiment: Cell adhesion assay, K562-αvβ3 (LAP-b1); conditions: read-out: αvβ3 pIC50 (converted)
T1 construct: expressed in transfected cells; host or cells: K562
Protocol: (§1) The following cell lines were used, with ligands in brackets: K562-αvβ3 (LAP-b1), K562-αvβ5 (Vitronectin), K562-αvβ6 (LAP-b1), K562-αvβ8 (LAP-b1), A549-αvβ1 (LAP-b1). The divalent cation used to facilitate adhesion was 2 mM MgCl2. Adhesion was quantified by cell labelling with the fluorescent dye BCECF-AM (Life Technologies), where cell suspensions at 3×10^6 cells/mL were incubated with 0.33 uL/mL of 30 mM BCECF-AM at 37° C. for 10 minutes, then 50 μL/well were dispensed into the 96-well assay plate. At the assay conclusion cells that adhered were lysed using 50 μL/well of 0.5% Triton X-100 in H2O to release fluorescence. Fluorescence intensity was detected using an Envision® plate reader (Perkin Elmer). For active antagonists in the assay, data were fitted to a 4 parameter logistic equation for IC50 determinations.
Figures quoted are Mean pIC50 values.

αvβ8 = molecular target: T2, αvβ8 (Homo sapiens, UniProt P06756+P26012); experiment: Cell adhesion assay, K562-αvβ8 (LAP-b1); conditions: read-out: αvβ8 pIC50 (converted)
T2 construct: expressed in transfected cells; host or cells: K562
T2 sequence (P06756 31-889 limits assumed): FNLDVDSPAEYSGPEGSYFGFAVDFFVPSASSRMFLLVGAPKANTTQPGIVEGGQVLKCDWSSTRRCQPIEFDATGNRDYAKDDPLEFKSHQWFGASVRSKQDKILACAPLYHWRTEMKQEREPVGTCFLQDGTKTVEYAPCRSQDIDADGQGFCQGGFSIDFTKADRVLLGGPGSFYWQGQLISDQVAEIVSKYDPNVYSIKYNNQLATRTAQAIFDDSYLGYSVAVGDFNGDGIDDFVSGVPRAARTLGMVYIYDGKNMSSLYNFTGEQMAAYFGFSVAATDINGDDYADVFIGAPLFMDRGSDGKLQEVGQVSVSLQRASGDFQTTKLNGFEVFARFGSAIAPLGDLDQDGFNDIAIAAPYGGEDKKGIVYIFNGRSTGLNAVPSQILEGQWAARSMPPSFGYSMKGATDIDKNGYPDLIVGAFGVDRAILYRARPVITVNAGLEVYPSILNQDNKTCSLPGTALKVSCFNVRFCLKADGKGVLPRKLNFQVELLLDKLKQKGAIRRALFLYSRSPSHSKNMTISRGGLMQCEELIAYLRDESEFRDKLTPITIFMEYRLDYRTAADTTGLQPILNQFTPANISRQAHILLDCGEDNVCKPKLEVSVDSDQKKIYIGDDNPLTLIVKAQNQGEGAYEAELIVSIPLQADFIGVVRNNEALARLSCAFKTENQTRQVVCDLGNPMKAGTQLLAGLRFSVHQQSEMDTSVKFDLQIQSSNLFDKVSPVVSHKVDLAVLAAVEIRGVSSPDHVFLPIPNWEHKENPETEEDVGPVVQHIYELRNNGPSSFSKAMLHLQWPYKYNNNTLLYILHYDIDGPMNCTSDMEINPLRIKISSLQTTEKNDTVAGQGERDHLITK
T2 sequence (P06756 891-1048 partner limits assumed): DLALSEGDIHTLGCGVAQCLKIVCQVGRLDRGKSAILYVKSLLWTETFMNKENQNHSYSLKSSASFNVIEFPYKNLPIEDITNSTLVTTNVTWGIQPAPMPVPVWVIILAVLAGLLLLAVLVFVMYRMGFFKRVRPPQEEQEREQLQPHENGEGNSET
T2 sequence (P26012 43-769): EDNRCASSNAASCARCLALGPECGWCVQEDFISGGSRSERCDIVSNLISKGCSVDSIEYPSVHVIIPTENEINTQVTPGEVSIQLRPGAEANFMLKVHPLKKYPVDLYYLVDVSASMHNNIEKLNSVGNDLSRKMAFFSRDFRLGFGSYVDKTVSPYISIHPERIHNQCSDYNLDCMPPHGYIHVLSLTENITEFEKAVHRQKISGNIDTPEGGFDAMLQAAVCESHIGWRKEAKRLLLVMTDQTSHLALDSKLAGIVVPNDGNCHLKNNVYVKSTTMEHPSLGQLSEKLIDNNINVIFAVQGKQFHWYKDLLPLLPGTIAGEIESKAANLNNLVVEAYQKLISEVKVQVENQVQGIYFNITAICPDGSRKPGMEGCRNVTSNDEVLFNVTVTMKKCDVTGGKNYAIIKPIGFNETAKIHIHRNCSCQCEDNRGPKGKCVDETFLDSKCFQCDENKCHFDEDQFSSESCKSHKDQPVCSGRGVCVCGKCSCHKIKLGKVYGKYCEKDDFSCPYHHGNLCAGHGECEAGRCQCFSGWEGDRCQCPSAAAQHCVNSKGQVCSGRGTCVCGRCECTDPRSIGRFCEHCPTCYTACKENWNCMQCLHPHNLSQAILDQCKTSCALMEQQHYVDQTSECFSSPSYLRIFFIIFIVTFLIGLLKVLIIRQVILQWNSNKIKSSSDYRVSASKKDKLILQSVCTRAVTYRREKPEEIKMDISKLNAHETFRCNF
Protocol: as §1
Figures quoted are Mean pIC50 values.

αvβ1 = molecular target: T3, αvβ1 (Homo sapiens, UniProt P05556+P06756); experiment: Cell adhesion assay, A549-αvβ1 (LAP-b1)
T3 construct: host or cells: A549
T3 sequence (P06756 31-889 limits assumed): as the sequence (P06756 31-889 limits assumed) above
T3 sequence (P06756 891-1048 partner limits assumed): as the sequence (P06756 891-1048 partner limits assumed) above
T3 sequence (P05556 21-798): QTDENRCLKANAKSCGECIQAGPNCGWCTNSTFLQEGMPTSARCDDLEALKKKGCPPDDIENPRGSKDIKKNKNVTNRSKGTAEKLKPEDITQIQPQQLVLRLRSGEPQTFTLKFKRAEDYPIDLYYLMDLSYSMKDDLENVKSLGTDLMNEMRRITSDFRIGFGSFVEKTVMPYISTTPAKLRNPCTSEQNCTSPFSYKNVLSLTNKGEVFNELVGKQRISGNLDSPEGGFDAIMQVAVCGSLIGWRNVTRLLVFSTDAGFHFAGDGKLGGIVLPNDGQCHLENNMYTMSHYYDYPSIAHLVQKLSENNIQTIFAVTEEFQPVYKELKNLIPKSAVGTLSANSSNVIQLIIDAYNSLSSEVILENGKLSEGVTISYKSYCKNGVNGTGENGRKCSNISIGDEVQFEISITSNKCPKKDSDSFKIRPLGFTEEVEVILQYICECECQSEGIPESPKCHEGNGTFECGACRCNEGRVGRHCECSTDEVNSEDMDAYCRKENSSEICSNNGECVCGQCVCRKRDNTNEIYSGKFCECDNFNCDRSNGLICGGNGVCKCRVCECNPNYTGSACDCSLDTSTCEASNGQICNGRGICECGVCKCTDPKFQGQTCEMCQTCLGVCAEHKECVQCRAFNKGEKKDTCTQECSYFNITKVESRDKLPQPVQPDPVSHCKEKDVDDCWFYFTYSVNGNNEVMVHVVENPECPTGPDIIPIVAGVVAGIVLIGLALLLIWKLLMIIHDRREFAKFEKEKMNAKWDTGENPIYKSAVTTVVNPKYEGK
Protocol: as §1
Figures quoted are Mean pIC50 values.

αvβ5 = molecular target: T4, αvβ5 (Homo sapiens, UniProt P06756+P18084); experiment: Cell adhesion assay, K562-αvβ5 (Vitronectin); conditions: read-out: αvβ5 pIC50 (converted)
T4 construct: expressed in transfected cells; host or cells: K562
T4 sequence (P06756 31-889 limits assumed): as the sequence (P06756 31-889 limits assumed) above
T4 sequence (P06756 891-1048 partner limits assumed): as the sequence (P06756 891-1048 partner limits assumed) above
T4 sequence (P18084 24-799): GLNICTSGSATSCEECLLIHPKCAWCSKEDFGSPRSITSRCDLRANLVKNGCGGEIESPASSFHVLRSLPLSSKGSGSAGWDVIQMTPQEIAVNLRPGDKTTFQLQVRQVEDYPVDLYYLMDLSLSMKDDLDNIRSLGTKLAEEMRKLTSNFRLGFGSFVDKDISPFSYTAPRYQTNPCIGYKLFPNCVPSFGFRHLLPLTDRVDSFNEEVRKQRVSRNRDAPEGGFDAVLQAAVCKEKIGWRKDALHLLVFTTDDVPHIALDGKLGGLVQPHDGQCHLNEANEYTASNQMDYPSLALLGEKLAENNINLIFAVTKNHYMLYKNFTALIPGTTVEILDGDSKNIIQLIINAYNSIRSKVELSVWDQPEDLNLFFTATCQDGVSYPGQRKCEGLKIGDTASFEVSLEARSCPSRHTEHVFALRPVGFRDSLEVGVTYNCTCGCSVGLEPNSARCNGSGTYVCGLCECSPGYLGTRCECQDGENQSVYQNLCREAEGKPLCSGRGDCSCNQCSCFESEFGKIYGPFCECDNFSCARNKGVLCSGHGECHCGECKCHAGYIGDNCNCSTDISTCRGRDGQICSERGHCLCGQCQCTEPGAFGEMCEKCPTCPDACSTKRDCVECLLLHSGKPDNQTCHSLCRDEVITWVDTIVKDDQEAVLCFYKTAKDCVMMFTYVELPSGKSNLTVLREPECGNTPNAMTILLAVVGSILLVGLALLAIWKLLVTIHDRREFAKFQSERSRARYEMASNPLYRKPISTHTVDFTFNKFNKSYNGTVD
Protocol: as §1
Figures quoted are Mean pIC50 values.

αvβ6 = molecular target: T5, αvβ6 (Homo sapiens, UniProt P06756+P18564); experiment: Cell adhesion assay, K562-αvβ6 (LAP-b1); conditions: read-out: αvβ6 pIC50 (converted)
T5 construct: expressed in transfected cells; host or cells: K562
T5 sequence (P06756 31-889 limits assumed): as the sequence (P06756 31-889 limits assumed) above
T5 sequence (P06756 891-1048 partner limits assumed): as the sequence (P06756 891-1048 partner limits assumed) above
T5 sequence (P18564 22-788): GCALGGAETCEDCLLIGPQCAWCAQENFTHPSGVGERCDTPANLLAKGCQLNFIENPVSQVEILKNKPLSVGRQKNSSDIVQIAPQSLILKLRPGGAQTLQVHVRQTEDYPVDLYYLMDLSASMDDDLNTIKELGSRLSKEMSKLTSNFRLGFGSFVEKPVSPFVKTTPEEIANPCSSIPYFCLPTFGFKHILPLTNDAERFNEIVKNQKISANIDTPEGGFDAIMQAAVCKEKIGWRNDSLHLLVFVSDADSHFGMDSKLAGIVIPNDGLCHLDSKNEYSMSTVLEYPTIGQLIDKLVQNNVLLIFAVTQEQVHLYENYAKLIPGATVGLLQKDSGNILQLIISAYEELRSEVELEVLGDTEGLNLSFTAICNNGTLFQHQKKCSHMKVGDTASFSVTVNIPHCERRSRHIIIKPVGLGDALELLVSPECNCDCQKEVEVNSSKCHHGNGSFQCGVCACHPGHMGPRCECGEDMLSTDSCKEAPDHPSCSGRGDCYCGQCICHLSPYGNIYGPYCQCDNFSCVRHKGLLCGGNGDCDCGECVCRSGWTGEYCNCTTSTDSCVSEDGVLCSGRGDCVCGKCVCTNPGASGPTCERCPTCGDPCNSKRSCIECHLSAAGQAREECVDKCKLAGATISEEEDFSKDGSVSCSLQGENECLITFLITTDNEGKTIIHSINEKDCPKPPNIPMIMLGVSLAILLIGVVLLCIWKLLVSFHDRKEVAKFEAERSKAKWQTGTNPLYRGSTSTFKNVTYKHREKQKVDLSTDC
Protocol: as §1
Figures quoted are Mean pIC50 values.

[1] = cell adhesion, A549-αvβ1 cells, ligand LAP-b1, 2 mM MgCl2, mean pIC50

O=C(O)C[C@H](CN1CC[C@@](F)(CCc2ccc3c(n2)NCCC3)C1)c1cc(N2CCOCC2)ccc1F [Example 5, (S)-4-((S)-3-Fluoro-3-(2-(5,6,7,8-tetrahydro-1,8-naphthyridin-2-yl)ethyl)pyrrolidin-1-yl)-3-(2-fluoro-5-morpholinophenyl)butanoic acid]
IC50 (αvβ3): 794 nM | IC50 (αvβ8): 25.1 nM | IC50 (αvβ1; read-out: αvβ1 pIC50 (converted)): 158 nM | IC50 (αvβ5): 316 nM | IC50 (αvβ6): 15.8 nM

O=C(O)C[C@H](CN1CC[C@@](F)(CCc2ccc3c(n2)NCCC3)C1)c1cccc(N2CCOCC2)c1 [Example 4, (S)-4-(S)-(3-Fluoro-3-(2-(5,6,7,8-tetrahydro-1,8-naphthyridin-2-yl)ethyl)pyrrolidin-1-yl)-3-(3-morpholinophenyl)butanoic acid fumarate salt]
IC50 (αvβ1; [1]): 100 nM

O=C(O)C[C@H](CN1CC[C@@](F)(CCc2ccc3c(n2)NCCC3)C1)c1cccc(N2CCOCC2)c1 [Example 3, (S)-4-(S)-(3-Fluoro-3-(2-(5,6,7,8-tetrahydro-1,8-naphthyridin-2-yl)ethyl)pyrrolidin-1-yl)-3-morpholinophenyl)butanoic acid maleate salt]
IC50 (αvβ1; [1]): 79.4 nM

O=C(O)CC(CN1CC[C@](F)(CCc2ccc3c(n2)NCCC3)C1)c1cc(N2CCOCC2)ccc1F (stereo partly drawn) [Example 9, 4-((R)-3-Fluoro-3-(2-(5,6,7,8-tetrahydro-1,8-naphthyridin-2-yl)ethyl)pyrrolidin-1-yl)-3-(2-fluoro-5-morpholinophenyl)butanoic acid]
IC50 (αvβ3): 7940 nM | IC50 (αvβ8): 79.4 nM | IC50 (αvβ5): 316 nM | IC50 (αvβ6): 25.1 nM

O=C(O)C[C@H](CN1CC[C@](F)(CCc2ccc3c(n2)NCCC3)C1)c1cccc(N2CCOCC2)c1 [Example 2, (S)-4-(R)-(3-Fluoro-3-(2-(5,6,7,8-tetrahydro-1,8-naphthyridin-2-yl)ethyl)pyrrolidin-1-yl)-3-(3-morpholinophenyl)butanoic acid]
IC50 (αvβ8): 25.1 nM
